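Cells were grown in 96-well plates and exposed to each compound for 48 hours at five concentrations; endpoints were interpolated linearly between bracketing concentrations, or set to the highest concentration if not reached. Abbreviation: GI50, concentration required for 50% inhibition of growth. TGI is the concentration that stops growth completely.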

Among the data in PubChem BioAssay (NCI) are GI50 and TGI values, retold here.

Common to all, as to assay: DTP human tumour cell line panel, 48 h
Assay [1] deals with A549 NSCLC.
The test system of assay [2] is ACHN renal.
Assay [3] concerns DU-145 prostate.
The test system of assay [4] is KM12 colon.
The test system of assay [5] is MDA-MB-231 breast.
Assay [6] deals with NCI-H522 lung.
Assay [7] deals with NCI/ADR-RES ovarian.
Assay [8] relates to SF-539 CNS.
The test system of assay [9] is SNB-75 CNS.
For assay [10], the system named is TK-10 renal.

What is called GI50 is the concentration giving 50% growth inhibition. For orientation: TGI means the concentration giving total growth inhibition. High values mean less potent growth arrest, low ones more potent growth arrest. For the molecule `CNC(=O)c1ccccc1Nc1nc(Nc2cc(OC)c(OC)c(OC)c2)ncc1Br`, the GI50 in assay [1] was 0.0354 µM; in assay [2] it was 0.0209 µM; in [3], 0.0348 µM; in [4], less than 0.0136 µM; in [5] it was 0.033 µM; in [6] it was 0.0417 µM. Also, the GI50 in assay [7] is 0.0496 µM; in assay [8], 0.0313 µM; in [9], less than 0.0124 µM; in assay [10] it was 0.0186 µM. Besides, the TGI in assay [1] was 17.5 µM; in [2], 15.6 µM; in [3], 42.1 µM; in [4], 4.98 µM; in assay [5], 0.263 µM; in [6], 1.85 µM. Further, the TGI in assay [7] was found to be 1.81 µM; in assay [8] it was 0.263 µM; in assay [9] it was 0.0494 µM; in [10], 0.648 µM.
Take `Cn1c2c(c3ccc([N+](=O)[O-])cc3c1=O)C(=O)c1ccccc1-2`: the GI50 in assay [1], in [2], in assay [3], in assay [4], in [5] and in [6] was greater than 100 µM throughout. The GI50 in [7], in assay [8], in [9] and in assay [10] was greater than 100 µM each time. The TGI in assay [1], in assay [2], in assay [3], in assay [4], in assay [5] and in [6] was greater than 100 µM in each case. In addition, the TGI in assay [7], in assay [8], in assay [9] and in assay [10] was greater than 100 µM in each case.
Regarding `Cn1cnc([N+](=O)[O-])c1Sc1nc(N)nc2c1ncn2C1CC(O)C(CO)O1` (stereo not given), the TGI is greater than 100 µM in [1]; greater than 92.8 µM in [2]; greater than 50.8 µM in assay [3]; 12.1 µM in assay [4]; greater than 100 µM in assay [5]; 14.4 µM in assay [6]. Besides, the TGI in [7] is greater than 100 µM; in assay [8], greater than 100 µM; in assay [9] it was 37.7 µM; in [10], greater than 100 µM.
As for `CS(=O)(=O)CCc1cccc(C(=O)c2cnn(-c3ccc(F)cc3)c2N)c1`, the GI50 in [1], in assay [2], in [3], in assay [4], in assay [5] and in assay [6] was greater than 25 µM in each case. Moreover, the GI50 in [7], in [8], in [9] and in assay [10] was greater than 25 µM each time. Further, the TGI in assay [1], in [2], in [3], in assay [4], in [5] and in assay [6] was greater than 25 µM throughout. In addition, the TGI in [7], in assay [8], in [9] and in [10] was greater than 25 µM each time.
`CCOC(=O)c1cc2c(cc1Cl)SC(N(c1ccc(OC)cc1)S(=O)(=O)c1ccc(Cl)cc1)=NS2(=O)=O`: the GI50 was 33.4 µM in assay [1]; 35 µM in assay [2]; 24 µM in [3]; 46.7 µM in [4]; 47 µM in [5]; 21 µM in assay [6]. In addition, the GI50 in assay [7] is 31.5 µM; in assay [8], 15.1 µM; in assay [9] it was 23.3 µM; in [10], 38.4 µM. Further, the TGI is greater than 100 µM in assay [1]; greater than 100 µM in assay [2]; 79.9 µM in [3]; greater than 100 µM in assay [4]; greater than 100 µM in assay [5]; 64.8 µM in assay [6]. For the same molecule, the TGI in [7] was 88.6 µM; in assay [8], 31.2 µM; in assay [9] it was 90.4 µM; in assay [10], greater than 100 µM.
Consider `Clc1ccc(-c2c3c(nn2-c2ccccn2)CCc2ccccc2-3)cc1Cl`, for which the GI50 in assay [1] is greater than 100 µM; in assay [2], 74 µM; in assay [3] it was greater than 100 µM; in [4], greater than 100 µM; in assay [5], 73.7 µM; in assay [6], greater than 100 µM. For the same molecule, the GI50 is greater than 100 µM in assay [7], greater than 100 µM in [8], 67.6 µM in assay [9] and 65.6 µM in [10]. The TGI in [1], in assay [2], in assay [3], in assay [4], in assay [5] and in assay [6] was greater than 100 µM each time. Also, the TGI in assay [7], in assay [8], in assay [9] and in [10] was greater than 100 µM in each case.
Regarding `CN(Cc1ccccc1)c1ccc(CO)c(Cl)c1`, the GI50 is 4.74 µM in [1]; 57.2 µM in assay [2]; 27.8 µM in assay [3]; 22.6 µM in [4]; 34.1 µM in [5]; 29 µM in assay [6]. The GI50 in assay [7] is 18.9 µM; in assay [8] it was 61.3 µM; in [9], 22.4 µM; in assay [10] it was 0.225 µM. For the same molecule, the TGI was 32.5 µM in assay [1]; greater than 100 µM in assay [2]; greater than 100 µM in assay [3]; greater than 86.5 µM in assay [4]; greater than 100 µM in assay [5]; greater than 100 µM in [6]. In addition, the TGI in [7] is 72.6 µM; in assay [8], greater than 100 µM; in assay [9], greater than 80.7 µM; in assay [10], 1.01 µM.
In the case of `CC(=O)C1=C(O)C=C2Oc3c(C(=O)/C=C/c4c(Cl)cccc4Cl)c(O)c(C)c(O)c3[C@]2(C)C1=O`, the GI50 was 1.58 µM in [1]; 1.64 µM in [2]; 0.966 µM in assay [3]; 1.15 µM in assay [4]; 1.3 µM in assay [5]; 0.46 µM in assay [6]. Moreover, the GI50 in assay [7] is 0.786 µM; in assay [8], 2.19 µM; in assay [9], 2.12 µM; in [10] it was 0.728 µM. Also, the TGI in assay [1] is 5.53 µM; in assay [2], 8.07 µM; in assay [3], 6.31 µM; in assay [4] it was 3.99 µM; in assay [5] it was 5.72 µM; in assay [6] it was 2.77 µM. For the same molecule, the TGI in [7] amounted to 5.21 µM; in assay [8] it was 4.91 µM; in assay [9] it was 4.76 µM; in [10], 5.17 µM.
Take `CC(C)(C)c1cc(-n2c(-c3ccc(Cl)cc3)nc3cc(C(=O)Nc4ccc(Cl)cc4)ccc32)n[nH]1`: the GI50 in assay [1] is 3.71 µM; in assay [2], 5.18 µM; in assay [3], 8.5 µM; in assay [4], 2.76 µM; in assay [5] it was 23.7 µM; in [6], 3.9 µM. For the same molecule, the GI50 was 4.17 µM in [7], 28 µM in assay [8], 7.08 µM in assay [9] and 3.66 µM in [10]. Besides, the TGI in assay [1] was greater than 100 µM; in assay [2] it was greater than 100 µM; in [3], greater than 100 µM; in assay [4], greater than 100 µM; in [5] it was greater than 100 µM; in [6] it was 94.8 µM. The TGI was greater than 100 µM in assay [7], greater than 100 µM in assay [8], 26.4 µM in [9] and greater than 100 µM in [10].
As to `Nc1nc2c(ncn2C2C=CC(CO)C2)c(=O)[nH]1` (stereo not given), the TGI in assay [1], in assay [2], in assay [3], in [4], in assay [5] and in assay [6] was greater than 100 µM throughout. The TGI in [7], in assay [8], in assay [9] and in assay [10] was greater than 100 µM in each case.
Consider `O=C1C=CC(=Nc2cc(Br)c(O)c(Br)c2)C=C1`, for which the GI50 in [1] was 42.6 µM; in assay [2], 18.9 µM; in assay [3] it was 30 µM; in assay [4] it was 16.9 µM; in [5], 31.5 µM; in assay [6], 3.96 µM. For the same molecule, the GI50 in assay [7] was 47.2 µM; in [8], 21.5 µM; in [9], 27.5 µM; in [10] it was 32.9 µM. Further, the TGI was greater than 100 µM in assay [1]; 46.3 µM in assay [2]; greater than 100 µM in assay [3]; 42.5 µM in [4]; greater than 100 µM in assay [5]; 28.8 µM in [6]. The TGI in assay [7] was greater than 100 µM; in [8], 64.1 µM; in assay [9], greater than 100 µM; in [10] it was greater than 100 µM.
`Cc1cc(N2CCOCC2)nc(N[C@@H]2CCC[C@H](Nc3ccnc4cc(Cl)ccc34)C2)n1`: the GI50 was 3.31 µM in assay [1]; 1.89 µM in assay [2]; 3.82 µM in [3]; 3.06 µM in assay [4]; 1.7 µM in [5]; 2.97 µM in [6]. In addition, the GI50 in assay [7] was 2.59 µM; in assay [8], 1.61 µM; in assay [9] it was 1.6 µM; in assay [10] it was 2.15 µM. In addition, the TGI in [1] is 8.56 µM; in assay [2] it was 3.91 µM; in [3], 14.7 µM; in assay [4], 10.8 µM; in assay [5], 3.58 µM; in assay [6] it was 6.23 µM. Besides, the TGI in assay [7] is 8 µM; in [8], 3.09 µM; in [9], 4.01 µM; in assay [10] it was 4.09 µM.
Turning to `O=C(Nc1ccncc1)C(=O)c1cn(S(=O)(=O)c2ccc(Cl)cc2)c2ccccc12`, the GI50 in [1] was 17.5 µM; in assay [2] it was 3.49 µM; in assay [3], 3.43 µM; in assay [4], 0.567 µM; in assay [5] it was 3.69 µM; in [6], 0.279 µM. In addition, the 50% growth inhibitory concentration (GI50) is 0.369 µM in assay [7], 0.696 µM in [8], 1.23 µM in assay [9] and 11.5 µM in [10]. In addition, the total growth inhibition concentration (TGI) in assay [1] was greater than 100 µM; in assay [2], greater than 59.6 µM; in [3] it was greater than 49.7 µM; in assay [4], greater than 100 µM; in [5] it was 32.3 µM; in assay [6], 1.08 µM. For the same molecule, the TGI in assay [7] is greater than 100 µM; in [8], 12.5 µM; in assay [9], 10.9 µM; in assay [10], 38.4 µM.
With `c1ccc(CN2COc3c(ccc4c3OCN(Cc3ccccc3)C4)C2)cc1`, the GI50 in assay [1] is 0.477 µM; in assay [2] it was 0.316 µM; in [3], 0.569 µM; in [4] it was 0.621 µM; in [5], 0.564 µM; in assay [6], 2.05 µM. The GI50 in [7] was 0.256 µM; in assay [8], 1.45 µM; in [9] it was 2.09 µM; in [10] it was 0.464 µM. The TGI in assay [1], in [2], in assay [3], in [4], in assay [5] and in assay [6] was greater than 100 µM throughout. The concentration for total growth inhibition (TGI) in [7] was greater than 100 µM; in assay [8] it was 6.41 µM; in assay [9], greater than 100 µM; in [10] it was greater than 100 µM.
On to `C[As](C)SCC(COC(=O)C(Cl)c1ccccc1)OC(=O)C(Cl)c1ccccc1` (stereo not given), for which the GI50 in assay [1] is 3.84 µM; in assay [2] it was 1.36 µM; in [3] it was 1.24 µM; in assay [4], 2.24 µM; in assay [5] it was 1.53 µM; in assay [6], 0.361 µM. In addition, the GI50 in [7] is 2.76 µM; in [8], 0.968 µM; in assay [9], 10.6 µM; in assay [10] it was 0.222 µM. Moreover, the TGI in [1] was 15.2 µM; in assay [2], 11.4 µM; in assay [3] it was 16.9 µM; in [4] it was 13.5 µM; in assay [5], 4.95 µM; in assay [6], greater than 38.8 µM. The TGI was 16.8 µM in [7], 3.43 µM in [8], 42.6 µM in assay [9] and 1.58 µM in assay [10].
